One test deals with B. cereus ATCC 11778. The test is described as follows: MIC, NCCLS broth microdilution assay. The test is classed as cell-based, Bacillus cereus. Particulars: B. cereus ATCC 11778.
The subject of another test is C. albicans ATCC 38247. The experiment in a line: MIC, antifungal assay. The test is classed as cell-based, Candida albicans. Particulars: C. albicans ATCC 38247.
The next test concerns E. faecalis ATCC 29212. The test is described as follows: MIC, NCCLS broth microdilution assay. The test is classed as cell-based, Enterococcus faecalis. Particulars: E. faecalis ATCC 29212. For orientation: In broth dilution the organism is exposed to a series of concentrations in liquid medium.
Another test has as its system S. aureus ATCC 13709. The experiment in a line: MIC, NCCLS broth microdilution assay. Particulars: S. aureus ATCC 13709, methicillin sensitive strain (MSSA). The class given is cell-based, Staphylococcus aureus.
A further test has as its system S. aureus ATCC 27660. The test is described as follows: MIC, NCCLS broth microdilution assay. Particulars: S. aureus ATCC 27660, methicillin resistant strain (MRSA). The class given is cell-based, Staphylococcus aureus.
The next test deals with S. aureus ATCC 33591. The experiment in a line: MIC, NCCLS broth microdilution assay. The class given is cell-based, Staphylococcus aureus. Particulars: S. aureus ATCC 33591.
The subject of test [1] is S. epidermidis ATCC 12228. The experiment in a line: MIC, NCCLS broth microdilution assay. The test is classed as cell-based, Staphylococcus epidermidis.
In the next test the test system is S. pneumoniae ATCC 49619. The experiment in a line: MIC, NCCLS broth microdilution assay. The test is classed as cell-based, Streptococcus pneumoniae. Particulars: S. pneumoniae ATCC 49619.
The subject of the next test is E. coli ATCC 25922. The test is described as follows: MIC, NCCLS broth microdilution assay. The test is classed as cell-based, Escherichia coli. Particulars: E. coli ATCC 25922.
The test system of test [2] is E. faecium (ATCC 51559, VRE). Particulars: E. faecium ATCC 51559, vancomycin resistant strain (VRE). The source says: (§1) In vitro biological activity data were collected for a variety of microorganisms, including Bacillus cereus (ATCC 11778), Staphylococcus aureus (ATCC 33591; ATCC 27660, a methicillin resistant strain (MRSA); ATCC 13709, a methicillin sensitive strain (MSSA)), Escherichia coli (ATCC 25922), Enterococcus faecalis (ATCC 29212), Streptococcus pneumoniae (ATCC 49619; ATCC 51422, a penicillin resistant strain (PRSP)), Enterococcus faecium (ATCC 51559, a vancomycin resistant strain (VRE)), and Staphylococcus epidermidis (ATCC 12228). Additionally, antifungal activity data were collected for Candida albicans (ATCC 38247).
(§2) Compounds according to this invention were screened for their in vitro activities against selected species of bacteria and fungi. The minimal inhibition concentration (MIC) of these compounds was determined using the National Committee for Clinical Laboratory Standards (NCCLS) broth microdilution assay in microtiter plates, as set forth in: (1) the guidelines of the National Committee for Clinical Laboratory Standards (NCCLS) Document M7-A4 (NCCLS, 1997); (2) the guidelines of the National Committee for Clinical Laboratory Standards (NCCLS) Document M11-A4 (NCCLS, 1997); and (3) the guidelines and reference method of the National Committee for Clinical Laboratory Standards (NCCLS) Document M27 -T (NCCLS, 1995). For antifungal assays, the method recommended in Murray, PR., 1995 Manual of Clinical Microbiology (ASM Press, Washington, D.C.), was employed.
(§3) (MIC values are keyed in the same manner as Table B.)

The subject of test [3] is S. pneumoniae (ATCC 51422, PRSP). Particulars: S. pneumoniae ATCC 51422, penicillin resistant strain (PRSP).
Text: as §1, §2, §3

The source of these data is patent US7498349B2, “Biaryl compounds having anti-infective activity” (Genesoft Pharmaceuticals, Inc., priority 2002, dated 2009).

As to `Cc1cc(NC(=O)c2nsc(NCCCN)c2Cl)ccc1-c1cc2ccccc2o1` [Compound A-34], the “Minimum Inhibitory Concentration (MIC)” value in the test with B. cereus ATCC 11778, with C. albicans ATCC 38247, in the test on E. faecalis ATCC 29212, in the test on S. aureus ATCC 13709, in the test with S. aureus ATCC 27660 and in the test with S. aureus ATCC 33591 was “+++ (MIC ≦ 4)” each time. Also, the “Minimum Inhibitory Concentration (MIC)” value was “+++ (MIC ≦ 4)” in test [1]; “+ (12 ≦ MIC ≦ 32)” in the test on S. pneumoniae ATCC 49619; greater than 32 µg/mL with E. coli ATCC 25922; “+++ (MIC ≦ 4)” in [2]; “+ (12 ≦ MIC ≦ 32)” in test [3].
`NCCCCNc1snc(C(=O)Nc2ccc(-c3cc4ccccc4s3)nc2)c1Cl` [Compound A-68]: the “Minimum Inhibitory Concentration (MIC)” value with B. cereus ATCC 11778, in the test on C. albicans ATCC 38247, in the test with E. faecalis ATCC 29212, in the test on S. aureus ATCC 13709, with S. aureus ATCC 27660 and with S. aureus ATCC 33591 was “+++ (MIC ≦ 4)” throughout. In addition, the “Minimum Inhibitory Concentration (MIC)” value in test [1] was “+++ (MIC ≦ 4)”; in the test with S. pneumoniae ATCC 49619 it was greater than 32 µg/mL; in the test with E. coli ATCC 25922, greater than 32 µg/mL; in test [2], “+++ (MIC ≦ 4)”; in test [3] it was greater than 32 µg/mL.
For `NCCNc1ncccc1C(=O)Nc1ccc(-c2cc3ccccc3o2)cc1` [Compound A-19], the “Minimum Inhibitory Concentration (MIC)” value with B. cereus ATCC 11778 was “+++ (MIC ≦ 4)”; in the test on C. albicans ATCC 38247, “++ (4 < MIC < 12)”; in the test on E. faecalis ATCC 29212 it was “+++ (MIC ≦ 4)”; in the test with S. aureus ATCC 13709, “+++ (MIC ≦ 4)”; in the test with S. aureus ATCC 27660 it was “+++ (MIC ≦ 4)”; in the test with S. aureus ATCC 33591, “+++ (MIC ≦ 4)”. Besides, the “Minimum Inhibitory Concentration (MIC)” value in [1] was “+++ (MIC ≦ 4)”; with S. pneumoniae ATCC 49619 it was “+ (12 ≦ MIC ≦ 32)”; in the test on E. coli ATCC 25922, greater than 32 µg/mL.
In the case of `NCCCNc1snc(C(=O)Nc2ccc(-c3cc4ccccc4o3)cc2)c1Cl` [Compound A-2], the “Minimum Inhibitory Concentration (MIC)” value with B. cereus ATCC 11778 is listed as “+++ (MIC ≦ 4)”; in the test with C. albicans ATCC 38247, “++ (4 < MIC < 12)”; in the test with E. faecalis ATCC 29212, “+++ (MIC ≦ 4)”; with S. aureus ATCC 13709, “+++ (MIC ≦ 4)”; in the test with S. aureus ATCC 27660, “+++ (MIC ≦ 4)”; in the test on S. aureus ATCC 33591 it was “+++ (MIC ≦ 4)”. Also, the “Minimum Inhibitory Concentration (MIC)” value is “+++ (MIC ≦ 4)” in test [1]; “+ (12 ≦ MIC ≦ 32)” in the test on S. pneumoniae ATCC 49619; greater than 32 µg/mL with E. coli ATCC 25922; “+++ (MIC ≦ 4)” in test [2]; “+ (12 ≦ MIC ≦ 32)” in test [3].
With `Cc1ccc2nc(-c3ccc(NC(=O)c4nsc(NCCCN)c4Cl)cc3)sc2c1` [Compound A-53], the “Minimum Inhibitory Concentration (MIC)” value in the test with B. cereus ATCC 11778 was “+++ (MIC ≦ 4)”; in the test with C. albicans ATCC 38247, greater than 32 µg/mL; with E. faecalis ATCC 29212 it was “+++ (MIC ≦ 4)”; with S. aureus ATCC 13709, “+++ (MIC ≦ 4)”; with S. aureus ATCC 27660 it was “+++ (MIC ≦ 4)”; in the test on S. aureus ATCC 33591, “+++ (MIC ≦ 4)”. Further, the “Minimum Inhibitory Concentration (MIC)” value in [1] was “+++ (MIC ≦ 4)”; in the test on S. pneumoniae ATCC 49619 it was greater than 32 µg/mL; in the test on E. coli ATCC 25922 it was greater than 32 µg/mL; in [2], “+++ (MIC ≦ 4)”; in test [3] it was “+ (12 ≦ MIC ≦ 32)”.
Regarding `CN(C)CCCNc1snc(C(=O)Nc2ccc(-c3cc4ccccc4o3)cc2)c1Cl` [Compound A-7], the “Minimum Inhibitory Concentration (MIC)” value is listed as “+++ (MIC ≦ 4)” in the test on B. cereus ATCC 11778; “++ (4 < MIC < 12)” in the test on C. albicans ATCC 38247; “+++ (MIC ≦ 4)” with E. faecalis ATCC 29212; “+++ (MIC ≦ 4)” with S. aureus ATCC 13709; “+++ (MIC ≦ 4)” with S. aureus ATCC 27660; “+++ (MIC ≦ 4)” in the test with S. aureus ATCC 33591. Besides, the “Minimum Inhibitory Concentration (MIC)” value in [1] is “+++ (MIC ≦ 4)”; in the test with S. pneumoniae ATCC 49619 it was “+ (12 ≦ MIC ≦ 32)”; with E. coli ATCC 25922, greater than 32 µg/mL; in test [2] it was “+++ (MIC ≦ 4)”; in [3] it was “+ (12 ≦ MIC ≦ 32)”.
Consider `CN(C)CCCNc1ncccc1C(=O)Nc1ccc(-c2cc3ccccc3o2)cc1` [Compound A-11], for which the “Minimum Inhibitory Concentration (MIC)” value in the test with B. cereus ATCC 11778, in the test on C. albicans ATCC 38247, in the test with E. faecalis ATCC 29212, in the test on S. aureus ATCC 13709, in the test on S. aureus ATCC 27660 and with S. aureus ATCC 33591 was “+++ (MIC ≦ 4)” each time. Further, the “Minimum Inhibitory Concentration (MIC)” value in test [1] is “+++ (MIC ≦ 4)”; in the test with S. pneumoniae ATCC 49619, “+ (12 ≦ MIC ≦ 32)”; with E. coli ATCC 25922 it was greater than 32 µg/mL; in test [2], “+++ (MIC ≦ 4)”; in test [3] it was “+ (12 ≦ MIC ≦ 32)”.
As for `NCCNc1snc(C(=O)Nc2ccc(-c3cc4ccccc4o3)cc2)c1Cl` [Compound A-3], the “Minimum Inhibitory Concentration (MIC)” value in the test on B. cereus ATCC 11778 is given as “+ (12 ≦ MIC ≦ 32)”; in the test on C. albicans ATCC 38247, “+++ (MIC ≦ 4)”; in the test with E. faecalis ATCC 29212, “+++ (MIC ≦ 4)”; with S. aureus ATCC 13709 it was “+++ (MIC ≦ 4)”; in the test on S. aureus ATCC 27660 it was “+++ (MIC ≦ 4)”; with S. aureus ATCC 33591, “+++ (MIC ≦ 4)”. Further, the “Minimum Inhibitory Concentration (MIC)” value was “+++ (MIC ≦ 4)” in [1]; “+ (12 ≦ MIC ≦ 32)” in the test on S. pneumoniae ATCC 49619; greater than 32 µg/mL with E. coli ATCC 25922; “+++ (MIC ≦ 4)” in test [2]; “+ (12 ≦ MIC ≦ 32)” in [3].
Regarding `CN(C)CCCNc1snc(C(=O)Nc2ccc(-c3cc4ccccc4s3)cc2)c1Cl` [Compound A-47], the “Minimum Inhibitory Concentration (MIC)” value in the test with B. cereus ATCC 11778 was greater than 32 µg/mL; in the test with C. albicans ATCC 38247 it was “+++ (MIC ≦ 4)”; in the test with E. faecalis ATCC 29212 it was “+++ (MIC ≦ 4)”; in the test on S. aureus ATCC 13709 it was “+++ (MIC ≦ 4)”; in the test on S. aureus ATCC 27660, “+++ (MIC ≦ 4)”; in the test on S. aureus ATCC 33591, “+++ (MIC ≦ 4)”. In addition, the entries for the “Minimum Inhibitory Concentration (MIC)” value (in [1]; with S. pneumoniae ATCC 49619; with E. coli ATCC 25922) were “+++ (MIC ≦ 4)”, greater than 32 µg/mL and greater than 32 µg/mL, respectively.
